18 compounds from patent US7964531B2, “3-phenoxy-4-pyridazinol derivatives and herbicidal composition containing the same” (Mitsui Chemicals Agro, Inc., priority 2001, dated 2011) can be followed below.

With `Oc1cc(Cl)nnc1Oc1c(Cl)cccc1C1CC1` [Compound No. 740, 6-Chloro-3-(2-chloro-6-cyclopropylphenoxy)-4-pyridazinol], the melting point lay within 224 to 225 °C. As to `CCc1cccc(I)c1Oc1nnc(Cl)cc1O` [Compound No. 781, 6-Chloro-3-(2-ethyl-6-iodophenoxy)-4-pyridazinol], the melting point was in the range of 242 to 244 °C. With `Cc1cccc(Oc2nnc(Cl)cc2O)c1Br` [Compound No. 450, 3-(2-Bromo-3-methylphenoxy)-6-chloro-4-pyridazinol], the melting point lay within 140 to 141 °C. The figure for `Cc1ccccc1Oc1n[n+]([O-])c(Cl)cc1O` [Compound No. 129, 6-Chloro-3-(2-methylphenoxy)-4-pyridazinol 1-oxide] is 194 to 196 °C.

Take `Oc1cc(Cl)nnc1Oc1cccc(I)c1` [Compound No. 412, 6-Chloro-3-(3-iodophenoxy)-4-pyridazinol]: the melting point was 202 to 203 °C. In turn, `Cc1ccccc1Oc1cc(O)c(Oc2ccccc2C)nn1` [Compound No. 2492, 3,6-Bis(2-methylphenoxy)-4-pyridazinol] had a melting point of 247 to 250 °C. The compound `Cc1ccc(S(=O)(=O)Oc2cc(Cl)nnc2Oc2cccc3ccccc23)cc1` [Compound No. 2240, 6-Chloro-3-(1-naphthyloxy)-4-pyridazinyl 4-methylbenzenesulfonate] gave a melting point of 92 to 94 °C. The compound `Cc1cc(C)c(Oc2nnc(Cl)cc2O)c(C2CC2)c1` [Compound No. 1123, 6-Chloro-3-(2-cyclopropyl-4,6-dimethylphenoxy)-4-pyridazinol] returned a melting point of 215 to 217 °C. The figure for `Cc1ccc(S(=O)(=O)Oc2cc(Cl)nnc2Oc2ccccc2-c2ccccc2)cc1` [Compound No. 2231, 3-([1,1′-Biphenyl]-2-yloxy)-6-chloro-4-pyridazinyl 4-methylbenzenesulfonate] is 106 to 108 °C; for `CCCCc1ccccc1Oc1nnc(Cl)cc1O` [Compound No. 133, 3-(2-Butylphenoxy)-6-chloro-4-pyridazinol] it is 149.5 to 150 °C; for `Cc1ccccc1Oc1nnc(Cl)cc1OC(=O)OCC(C)C` [Compound No. 1757, 6-Chloro-3-(2-methylphenoxy)-4-pyridazinyl isobutyl carbonate] it is 46 to 47 °C. `COc1c(C)cc(C)c(C)c1Oc1nnc(Cl)cc1O` [Compound No. 1128, 6-Chloro-3-(2-methoxy-3,5,6-trimethylphenoxy)-4-pyridazinol] showed a melting point of 209 to 210 °C. `Cc1ccc(S(=O)(=O)Oc2cc(Cl)nnc2Oc2cccc(C(C)(C)C)c2)cc1` [Compound No. 2235, 3-(3-tert-Butylphenoxy)-6-chloro-4-pyridazinyl 4-methylbenzenesulfonate] yielded a melting point of 56 to 57 °C.

Take `Oc1cc(Cl)nnc1Oc1cccc2c1CC1CC21` (stereo not drawn) [Compound No. 516, 3-(1,1a,6,6a-Tetrahydrocyclopropa[a]inden-5-yloxy)-6-chloro-4-pyridazinol]: the melting point is 211 to 213 °C. In the case of `Oc1cc(Cl)nnc1Oc1c(F)cccc1F` [Compound No. 710, 6-Chloro-3-(2,6-difluorophenoxy)-4-pyridazinol], the melting point lay within 209 to 213 °C. The compound `CC(C)(C)c1ccc(Oc2nnc(Cl)cc2O)cc1` [Compound No. 433, 3-(4-tert-Butylphenoxy)-6-chloro-4-pyridazinol] came in with a melting point of 224 to 225 °C.

Regarding `Cc1c(C)c(C)c(Oc2nnc(Cl)cc2O)c(C)c1C` [Compound No. 2614, 6-Chloro-3-(2,3,4,5,6-pentamethylphenoxy)-4-pyridazinol], the melting point was 238 to 240 °C (dec.). In turn, `Cc1ccccc1Oc1nnc(Cl)cc1OS(=O)(=O)c1ccc([N+](=O)[O-])cc1` [Compound No. 2287, 6-Chloro-3-(2-methylphenoxy)-4-pyridazinyl 4-nitrobenzenesulfonate] showed a melting point of 166 to 169 °C.
